The test system of assay [1] is control sera (pooled serum of ten healthy LUMC hospital workers; commercial negative donor pooled serum from the Dutch bloodbank). Format: binding, human. On the set-up: Binding of Control serum LUMC to linear peptides / Binding of Control serum Blood-bank to linear peptides / Binding of Control serum LUMC to looped peptides / Binding of Control Serum Blood-Bank to Looped peptides / Binding of Control serum LUMC to linear peptides of the protein M of SARS-CoV Urbani / Binding of Control serum Blood-bank to linear peptides of the protein M of SARS-CoV Urbani / Binding of Control serum LUMC to looped peptides of the protein M of SARS-CoV Urbani / Binding of Control Serum Blood-Bank to Looped peptides of the protein M of SARS-CoV Urbani: unit not given here.

In assay [2] the test system is antibodies in sera from SARS patients (sera 1a, 1b, 2, 6, 37, 62, London, SARS-yellow, SARS-green). Format: binding, human. More on the design: Binding of serum 6 to linear peptides of protein X1 of SARS-CoV Urbani / Binding of serum 37 to linear peptides of protein X1 of SARS-CoV Urbani / Binding of serum 6 to looped/cyclic peptide (PEPSCAN-ELISA) / Binding of serum 37 to looped/cyclic peptide (PEPSCAN-ELISA) / Binding of serum 37 to looped/cyclic peptides of protein X1 of SARS-CoV Urbani / Binding of serum 6 to linear peptides of protein X2 / Binding of serum 37 to linear peptides of protein X2 / Binding of serum 37 to looped/cyclic peptides of protein X2 of SARS-CoV Urbani / Binding of serum 6 to linear peptides of protein M of SARS-CoV Urbani / Binding of serum 37 to linear peptides of protein M of SARS-CoV Urbani / Binding of serum 6 to looped/cyclic peptides of protein M of SARS-CoV Urbani / Binding of serum 37 to looped/cyclic peptides of protein M of SARS-CoV Urbani / Binding of serum 6 to linear peptides of protein X3 of SARS-CoV Urbani / Binding of serum 37 to linear peptides of protein X3 of SARS-CoV Urbani / Binding of serum 37 to looped/cyclic peptides of protein X3 of SARS-CoV Urbani / Binding of serum 6 to linear peptides of protein X4 of SARS-CoV Urbani / Binding of serum 37 to linear peptides of protein X4 of SARS-CoV Urbani / Binding of serum 37 to looped/cyclic peptides of protein X4 of SARS-CoV Urbani / Binding of serum 6 to linear peptides of protein X5 of SARS-CoV Urbani / Binding of serum 37 to linear peptides of protein X5 of SARS-CoV Urbani / Binding of serum 37 to looped/cyclic peptides of protein X5 of SARS-CoV Urbani / Binding of serum 6 to linear peptides of protein N of SARS-CoV Urbani / Binding of serum 37 to linear peptides of protein N of SARS-CoV Urbani / Binding of serum 6 to linear peptide (PEPSCAN-ELISA) / Binding of serum 1a to looped/cyclic peptides of protein N of SARS-CoV Urbani / Binding of serum 1b to looped/cyclic peptides of protein N of SARS-CoV Urbani / Binding of serum 2 to looped/cyclic peptides of protein N of SARS-CoV Urbani / Binding of serum 6 to looped/cyclic peptides of protein N of SARS-CoV Urbani / Binding of serum 37 to looped/cyclic peptides of protein N of SARS-CoV Urbani / Binding of serum 62 to looped/cyclic peptides of protein N of SARS-CoV Urbani / Binding of serum London to looped/cyclic peptides of protein N of SARS-CoV Urbani / Binding of serum SARS-green to looped/cyclic peptides of protein N of SARS-CoV Urbani: unit not given here.

Assay [3] relates to recombinant human anti-SARS-CoV antibody 03-018. Type of assay: binding. More on the design: Binding of antibody 03-018 to linear peptides of the N protein of SARS-CoV Urbani / Binding of antibody 03-018 to looped/cyclic peptides of the N protein of SARS-CoV Urbani: unit not given here.
Assay [4] deals with rabbit serum obtained by immunizing a rabbit with the SARS-CoV strain Frankfurt 1. Format: binding. On the set-up: Binding of a rabbit serum to linear peptides / Binding of a rabbit serum to looped peptides / Rabbit serum linear peptides / Rabbit serum looped peptides / Binding of a rabbit serum to linear peptides of protein N of SARS-CoV Urbani (Rabbit serum linear peptides) / Binding of a rabbit serum to looped/cyclic peptides of protein N of SARS-CoV Urbani (Rabbit serum looped peptides): unit not given here.

For the sequence QTQGNFGDQDLIRQG, in assay [1], the “Binding of Control Serum Blood-Bank to Looped peptides” value amounted to 0.8, the “Binding of Control serum Blood-bank to linear peptides” value is listed as 0.9, the “Binding of Control serum LUMC to linear peptides” value is given as 0.9 and the “Binding of Control serum LUMC to looped peptides” value turned out to be 0.7. Besides, in assay [2], the “Binding of serum 1a to looped/cyclic peptides of protein N of SARS-CoV Urbani” value worked out at 0.5, the “Binding of serum 1b to looped/cyclic peptides of protein N of SARS-CoV Urbani” value is listed as 0.4, the “Binding of serum 2 to looped/cyclic peptides of protein N of SARS-CoV Urbani” value is 0.5 and the “Binding of serum 6 to looped/cyclic peptides of protein N of SARS-CoV Urbani” value is listed as 0.3. Further, in assay [2], the “Binding of serum 37 to looped/cyclic peptides of protein N of SARS-CoV Urbani” value is on record as 0.9, the “Binding of serum 62 to looped/cyclic peptides of protein N of SARS-CoV Urbani” value is 0.9, the “Binding of serum London to looped/cyclic peptides of protein N of SARS-CoV Urbani” value worked out at 0.6 and the “Binding of serum SARS-green to looped/cyclic peptides of protein N of SARS-CoV Urbani” value is on record as 0.4. Moreover, in assay [2], the “Binding of serum SARS-yellow to looped/cyclic peptides of protein N of SARS-CoV Urbani” value turned out to be 0.8; the “Recognition of the peptide by sera of SARS-CoV infected individuals, and form (linear, looped/cyclic) in which it is recognized” value was “recognized in linear form”. For the same sequence, in assay [3], the “Binding of antibody 03-018 to linear peptides of the N protein of SARS-CoV Urbani” value is 0.1 and the “Binding of antibody 03-018 to looped/cyclic peptides of the N protein of SARS-CoV Urbani” value was found to be 0.2. In assay [4], the “Binding of a rabbit serum to linear peptides of protein N of SARS-CoV Urbani (Rabbit serum linear peptides)” value (“Binding … (Rabbit serum linear peptides)” below) was 0.1 and the “Binding of a rabbit serum to looped/cyclic peptides of protein N of SARS-CoV Urbani (Rabbit serum looped peptides)” value was 0.6.

As for QTVTKKSAAEASKKP, in assay [1], the “Binding of Control Serum Blood-Bank to Looped peptides” value was found to be 0.5, the “Binding of Control serum Blood-bank to linear peptides” value was 0.8, the “Binding of Control serum LUMC to linear peptides” value worked out at 0.9 and the “Binding of Control serum LUMC to looped peptides” value stood at 0.5. For the same sequence, in assay [2], the “Binding of serum 1a to looped/cyclic peptides of protein N of SARS-CoV Urbani” value was determined as 0.3, the “Binding of serum 1b to looped/cyclic peptides of protein N of SARS-CoV Urbani” value worked out at 0.2, the “Binding of serum 2 to looped/cyclic peptides of protein N of SARS-CoV Urbani” value was 0.4 and the “Binding of serum 6 to looped/cyclic peptides of protein N of SARS-CoV Urbani” value came out at 0.2. Further, in assay [2], the “Binding of serum 37 to looped/cyclic peptides of protein N of SARS-CoV Urbani” value is 0.5, the “Binding of serum 62 to looped/cyclic peptides of protein N of SARS-CoV Urbani” value was determined as 0.3, the “Binding of serum London to looped/cyclic peptides of protein N of SARS-CoV Urbani” value is 0.3 and the “Binding of serum SARS-green to looped/cyclic peptides of protein N of SARS-CoV Urbani” value was determined as 0.0. Also, in assay [2], the “Binding of serum SARS-yellow to looped/cyclic peptides of protein N of SARS-CoV Urbani” value is reported as 0.2; the “Recognition of the peptide by sera of SARS-CoV infected individuals, and form (linear, looped/cyclic) in which it is recognized” value is listed as “recognized in linear form”. Besides, in assay [3], the “Binding of antibody 03-018 to linear peptides of the N protein of SARS-CoV Urbani” value was found to be 0.1 and the “Binding of antibody 03-018 to looped/cyclic peptides of the N protein of SARS-CoV Urbani” value was found to be 0.2. Also, in assay [4], the “Binding … (Rabbit serum linear peptides)” value was 0.2 and the “Binding of a rabbit serum to looped/cyclic peptides of protein N of SARS-CoV Urbani (Rabbit serum looped peptides)” value was found to be 0.3.

For the sequence RATRRVRGGDGKMKE, in assay [1], the “Binding of Control Serum Blood-Bank to Looped peptides” value amounted to 0.4, the “Binding of Control serum Blood-bank to linear peptides” value is listed as 0.8, the “Binding of Control serum LUMC to linear peptides” value turned out to be 0.7 and the “Binding of Control serum LUMC to looped peptides” value was found to be 0.3. For the same sequence, in assay [2], the “Binding of serum 1a to linear peptides of protein N of SARS-CoV Urbani” value was determined as 0.2, the “Binding of serum 1a to looped/cyclic peptides of protein N of SARS-CoV Urbani” value amounted to 0.2, the “Binding of serum 1b to linear peptides of protein N of SARS-CoV Urbani” value is recorded as 0.1 and the “Binding of serum 1b to looped/cyclic peptides of protein N of SARS-CoV Urbani” value came to 0.1. In addition, in assay [2], the “Binding of serum 2 to linear peptides of protein N of SARS-CoV Urbani” value stood at 0.4, the “Binding of serum 2 to looped/cyclic peptides of protein N of SARS-CoV Urbani” value is listed as 0.2, the “Binding of serum 6 to linear peptides of protein N of SARS-CoV Urbani” value is given as 0.2 and the “Binding of serum 6 to looped/cyclic peptides of protein N of SARS-CoV Urbani” value was 0.1. For the same sequence, in assay [2], the “Binding of serum 37 to linear peptides of protein N of SARS-CoV Urbani” value turned out to be 0.8, the “Binding of serum 37 to looped/cyclic peptides of protein N of SARS-CoV Urbani” value is listed as 0.5, the “Binding of serum 62 to linear peptides of protein N of SARS-CoV Urbani” value is on record as 0.7 and the “Binding of serum 62 to looped/cyclic peptides of protein N of SARS-CoV Urbani” value turned out to be 0.2. Further, in assay [2], the “Binding of serum London to linear peptides of protein N of SARS-CoV Urbani” value worked out at 0.5, the “Binding of serum London to looped/cyclic peptides of protein N of SARS-CoV Urbani” value was 0.2, the “Binding of serum SARS-green to linear peptides of protein N of SARS-CoV Urbani” value amounted to 0.3 and the “Binding of serum SARS-green to looped/cyclic peptides of protein N of SARS-CoV Urbani” value came out at 0.0. Further, in assay [2], the “Binding of serum SARS-yellow to linear peptides of protein N of SARS-CoV Urbani” value is reported as 0.6 and the “Binding of serum SARS-yellow to looped/cyclic peptides of protein N of SARS-CoV Urbani” value came to 0.3. In addition, in assay [3], the “Binding of antibody 03-018 to linear peptides of the N protein of SARS-CoV Urbani” value is 0.1 and the “Binding of antibody 03-018 to looped/cyclic peptides of the N protein of SARS-CoV Urbani” value came to 0.2. In assay [4], the “Binding … (Rabbit serum linear peptides)” value was found to be 0.2 and the “Binding of a rabbit serum to looped/cyclic peptides of protein N of SARS-CoV Urbani (Rabbit serum looped peptides)” value is given as 0.2.

For the sequence RGGDGKMKELSPRWY, in assay [1], the “Binding of Control Serum Blood-Bank to Looped peptides” value was found to be 0.6, the “Binding of Control serum Blood-bank to linear peptides” value is listed as 0.6, the “Binding of Control serum LUMC to linear peptides” value is reported as 0.6 and the “Binding of Control serum LUMC to looped peptides” value was 0.6. For the same sequence, in assay [2], the “Binding of serum 1a to linear peptides of protein N of SARS-CoV Urbani” value is on record as 0.2, the “Binding of serum 1a to looped/cyclic peptides of protein N of SARS-CoV Urbani” value is reported as 0.3, the “Binding of serum 1b to linear peptides of protein N of SARS-CoV Urbani” value stood at 0.1 and the “Binding of serum 1b to looped/cyclic peptides of protein N of SARS-CoV Urbani” value came to 0.2. In assay [2], the “Binding of serum 2 to linear peptides of protein N of SARS-CoV Urbani” value came out at 0.2, the “Binding of serum 2 to looped/cyclic peptides of protein N of SARS-CoV Urbani” value was found to be 0.4, the “Binding of serum 6 to linear peptides of protein N of SARS-CoV Urbani” value is recorded as 0.2 and the “Binding of serum 6 to looped/cyclic peptides of protein N of SARS-CoV Urbani” value is 0.3. Moreover, in assay [2], the “Binding of serum 37 to linear peptides of protein N of SARS-CoV Urbani” value came to 0.7, the “Binding of serum 37 to looped/cyclic peptides of protein N of SARS-CoV Urbani” value was 0.5, the “Binding of serum 62 to linear peptides of protein N of SARS-CoV Urbani” value is 0.6 and the “Binding of serum 62 to looped/cyclic peptides of protein N of SARS-CoV Urbani” value stood at 0.4. In assay [2], the “Binding of serum London to linear peptides of protein N of SARS-CoV Urbani” value was found to be 0.5, the “Binding of serum London to looped/cyclic peptides of protein N of SARS-CoV Urbani” value was 0.4, the “Binding of serum SARS-green to linear peptides of protein N of SARS-CoV Urbani” value is on record as 0.3 and the “Binding of serum SARS-green to looped/cyclic peptides of protein N of SARS-CoV Urbani” value was determined as 0.3. For the same sequence, in assay [2], the “Binding of serum SARS-yellow to linear peptides of protein N of SARS-CoV Urbani” value stood at 0.6 and the “Binding of serum SARS-yellow to looped/cyclic peptides of protein N of SARS-CoV Urbani” value is given as 0.4. Also, in assay [3], the “Binding of antibody 03-018 to linear peptides of the N protein of SARS-CoV Urbani” value is recorded as 0.1 and the “Binding of antibody 03-018 to looped/cyclic peptides of the N protein of SARS-CoV Urbani” value stood at 0.2. Further, in assay [4], the “Binding … (Rabbit serum linear peptides)” value was found to be 0.1 and the “Binding of a rabbit serum to looped/cyclic peptides of protein N of SARS-CoV Urbani (Rabbit serum looped peptides)” value amounted to 0.4.

These data come from patent US20070128217A1 (priority 2003, published 2007).
